Results taken from US20250346600A1, “TRICYCLIC DERIVATIVES AND RELATED USES” (MOMA Therapeutics, Inc., priority 2023, published 2025).

How the values were obtained:
[1] = target: T1, Full length WRN protein (aa 2-1432) (Homo sapiens (Human), UniProt Q14191); test: WRN ATPase ADP-Glo biochemical assay, Assay Format A (10 μM ATP); conditions: 0.25 nM WRN, 100 nM C6.18 ssDNA, 30 min preincubation, read-out: ATPase ADPGlo AC50 (uM)- Assay Format A
Excerpt: Full length Werner helicase construct (Uniprot: Q14191) with an N-terminal FLAG-AVI-TEV tag was expressed using the Sf9 cell/baculovirus expression system. The harvested cell pellet was resuspended and lysed in a glass homogenizer. After insoluble material was removed by centrifugation, the helicase protein was first purified with FLAG affinity resin and then further purified through a size-exclusion chromatography column. Peak fractions containing the purified protein were concentrated, split into aliquots and frozen in liquid nitrogen to be thawed before use. Biochemical Assay Description (ATPase activity)-Assay Format A WRN activity was measured using an ATPase assay. Full length WRN protein (aa 2-1432) (production described separately) was used for the biochemical activity assays. The 39-mer ssDNA “C6.18” [NT] was purchased from IDT and used as a substrate. Quantification of ATP hydrolysis was evaluated using the ADP-Glo assay kit (Promega, Madison, WI). An enzyme titration time-course was performed to determine the optimal assay conditions. […] To evaluate the inhibitory effects of the compounds, 11-point 3-fold serial dilutions were prepared in DMSO. 50 nL of each concentration in duplicate was preincubated for 30 minutes in a 384-well microplate (Greiner #784075) with 5 μL of 0.5 nM WRN in assay buffer. The reaction was initiated by adding 5 μL of 200 nM C6.18 DNA with 20 μM ATP and was allowed to proceed for 30 minutes at room temperature. The reaction was stopped with 10 μL ADP-Glo reagent for 1 hour to remove unreacted ATP. Lastly, 20 μL ATP detection reagent was added and incubated for 1 hour to generate the luminescence signal. Control wells included “high controls” with no inhibition (DMSO, no compound) and “low controls” with maximum inhibition (no WRN). Luminescence was recorded on a PHERAstar (BMG Labtech, Ortenberg, Germany). Data was fit using the “Smart Fit” method within the Genedata Screener Software (Basel, Switzerland) to obtain IC50 values using four-parameter fits. Reported IC50s are the geometric means of at least two independent trials.

HCT116 cells = test: HCT116 (MSI) 7 day viability, CellTiter Glo; assay type: cell-based; conditions: Homo sapiens, HCT-116, 168 h, 7 days, read-out: HCT116 (MSI) Viability 7 Day Abs AC50
Method in brief: (§1)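 Seven-day viability is assessed with CellTiter Glo after compounds, diluted in ten 3-fold steps in DMSO, are exposed to HCT116 (50 cells/well) or HT29 (500 cells/well). Reported IC50 is the geometric mean of at least two independent runs.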

HT29 cells = test: HT29 (MSS) 7 day viability, CellTiter Glo; assay type: cell-based; conditions: Homo sapiens, HT-29, 168 h, 7 days, read-out: HT29 (MSS) Viability 7 Day CTGAbs AC50
Method in brief: as §1

[2] = target: T1, Full length WRN protein (aa 2-1432); test: WRN ATPase ADP-Glo biochemical assay, Assay Format B (100 μM ATP); conditions: 0.25 nM WRN, 100 nM C6.18 ssDNA, 60 min preincubation
[3] = read-out: ATPase ADPGlo AC50 (uM)- Assay Format B

T1 sequence (Q14191 2-1432): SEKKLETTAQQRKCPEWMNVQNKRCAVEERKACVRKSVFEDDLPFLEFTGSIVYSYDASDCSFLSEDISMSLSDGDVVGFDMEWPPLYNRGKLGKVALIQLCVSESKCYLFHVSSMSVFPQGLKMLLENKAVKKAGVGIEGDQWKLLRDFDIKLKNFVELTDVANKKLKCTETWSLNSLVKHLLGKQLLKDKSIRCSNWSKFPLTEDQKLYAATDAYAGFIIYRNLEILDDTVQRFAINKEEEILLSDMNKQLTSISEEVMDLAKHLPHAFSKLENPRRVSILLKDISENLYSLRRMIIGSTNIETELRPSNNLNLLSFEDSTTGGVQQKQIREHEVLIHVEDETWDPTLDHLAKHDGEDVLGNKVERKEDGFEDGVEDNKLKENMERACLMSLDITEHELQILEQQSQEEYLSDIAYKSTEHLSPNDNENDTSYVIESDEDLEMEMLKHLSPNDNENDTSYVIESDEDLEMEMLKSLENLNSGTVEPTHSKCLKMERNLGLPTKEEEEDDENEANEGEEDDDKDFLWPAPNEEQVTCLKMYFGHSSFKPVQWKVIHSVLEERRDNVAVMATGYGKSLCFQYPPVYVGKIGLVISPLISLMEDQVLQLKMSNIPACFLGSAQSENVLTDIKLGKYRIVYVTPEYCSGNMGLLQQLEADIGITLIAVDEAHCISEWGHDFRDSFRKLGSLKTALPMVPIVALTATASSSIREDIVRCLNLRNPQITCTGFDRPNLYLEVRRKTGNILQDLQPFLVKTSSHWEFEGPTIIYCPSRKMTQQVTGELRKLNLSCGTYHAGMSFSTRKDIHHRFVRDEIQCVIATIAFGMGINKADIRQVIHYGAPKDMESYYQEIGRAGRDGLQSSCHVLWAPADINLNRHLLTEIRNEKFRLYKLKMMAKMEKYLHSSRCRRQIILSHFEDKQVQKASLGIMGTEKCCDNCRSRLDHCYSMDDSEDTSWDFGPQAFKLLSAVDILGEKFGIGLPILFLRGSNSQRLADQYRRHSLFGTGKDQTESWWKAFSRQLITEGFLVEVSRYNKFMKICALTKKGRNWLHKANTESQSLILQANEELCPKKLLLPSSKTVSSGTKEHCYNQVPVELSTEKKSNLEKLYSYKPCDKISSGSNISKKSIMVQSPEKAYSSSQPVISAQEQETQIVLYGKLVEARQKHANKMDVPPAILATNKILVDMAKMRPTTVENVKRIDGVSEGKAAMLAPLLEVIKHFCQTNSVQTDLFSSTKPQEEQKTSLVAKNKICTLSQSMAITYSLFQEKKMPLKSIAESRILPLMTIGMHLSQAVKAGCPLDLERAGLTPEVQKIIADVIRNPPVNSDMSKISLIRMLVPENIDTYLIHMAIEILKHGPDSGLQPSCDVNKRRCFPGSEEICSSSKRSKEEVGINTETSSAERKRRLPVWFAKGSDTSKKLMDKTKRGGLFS

Compound	AC50 [1] [µM]	AC50 (HCT116 cells) [nM]	AC50 (HT29 cells) [nM]	AC50 [2, 3] [µM]	AC50 ([2]; ATPase ADPGlo AC50 (uM)- Assay Format B) [µM]
C=CC(=O)N1CCc2nn(-c3ccc(C(C)C)cc3)c3c2C(C1)N(C(=O)c1ccc2c(cnn2C(F)(F)F)c1)CC3 (stereo not drawn) [Compound 11, 1-(2-(4-isopropylphenyl)-5-(1-(trifluoromethyl)-1H-indazole-5-carbonyl)-2,3,4,5,5a,6,8,9-octahydro-7H-1,2,5,7-tetraazabenzo[cd]azulen-7-yl)prop-2-en-1-one]	> 0.055	> 1000	> 3000		
C=CC(=O)N1CCc2nn(-c3ccc(C4CC4)cc3)c3c2C(C1)N(C(=O)c1ccc(Br)nn1)CC3 (stereo not drawn) [Compound 108, 1-(5-(6-bromopyridazine-3-carbonyl)-2-(4-cyclopropylphenyl)-2,3,4,5,5a,6,8,9-octahydro-7H-1,2,5,7-tetraazabenzo[cd]azulen-7-yl)prop-2-en-1-one]	0.005 to 0.015				
C=CC(=O)N1CCc2nn(-c3ccc(C4CC4)cc3)c3c2C(C1)N(C(=O)c1cnc2c(c1)c(C(F)(F)F)nn2C)CC3 (stereo not drawn) [Compound 111, 1-(2-(4-cyclopropylphenyl)-5-(1-methyl-3-(trifluoromethyl)-1H-pyrazolo[3,4-b]pyridine-5-carbonyl)-2,3,4,5,5a,6,8,9-octahydro-7H-1,2,5,7-tetraazabenzo[cd]azulen-7-yl)prop-2-en-1-one]	0.015 to 0.055				
C=CC(=O)N1CCc2nn(-c3ccc(C4CC4)cc3)c3c2C(C1)N(C(=O)c1cnc(Br)cc1C)CC3 (stereo not drawn) [Compound 113, 1-(5-(6-bromo-4-methylnicotinoyl)-2-(4-cyclopropylphenyl)-2,3,4,5,5a,6,8,9-octahydro-7H-1,2,5,7-tetraazabenzo[cd]azulen-7-yl)prop-2-en-1-one]	0.005 to 0.015				
C=CC(=O)N1CCc2nn(-c3ccc(C4CC4)cc3)c3c2C(C1)N(C(=O)C12CC(C(F)(F)F)(C1)C2)CC3 (stereo not drawn) [Compound 121, 1-(2-(4-cyclopropylphenyl)-5-(3-(trifluoromethyl)bicyclo [1.1.1]pentane-1-carbonyl)-2,3,4,5,5a,6,8,9-octahydro-7H-1,2,5,7-tetraazabenzo[cd]azulen-7-yl)prop-2-en-1-one]	0.015 to 0.055				
C=CC(=O)N1CCc2nn(-c3ccc(C4CC4)cc3)c3c2C(C1)N(C(=O)c1cnc2[nH]c(C(F)(F)F)nc2c1)CC3 (stereo not drawn) [Compound 124, 1-(2-(4-cyclopropylphenyl)-5-(2-(trifluoromethyl)-3H-imidazo[4,5-b]pyridine-6-carbonyl)-2,3,4,5,5a,6,8,9-octahydro-7H-1,2,5,7-tetraazabenzo[cd]azulen-7-yl)prop-2-en-1-one]	0.015 to 0.055				
C=CC(=O)N1CCc2nn(-c3ccc(C4CC4)cc3)c3c2C(C1)N(C(=O)c1csc(S(N)(=O)=O)c1)CC3 (stereo not drawn) [Compound 125, 4-(7-acryloyl-2-(4-cyclopropylphenyl)-3,4,5,5a,6,7,8,9-octahydro-2H-1,2,5,7-tetraazabenzo[cd]azulene-5-carbonyl)thiophene-2-sulfonamide]	> 0.055				
C=CC(=O)N1CC(OC2CC2)c2nn(-c3ccc(C4CC4)cc3O)c3c2C(C1)N(C(=O)c1cnc(C(F)(F)F)cc1N)CC3 (stereo not drawn) [Compound 232, 1-(5-(4-amino-6-(trifluoromethyl)nicotinoyl)-9-cyclopropoxy-2-(4-cyclopropyl-2-hydroxyphenyl)-2,3,4,5,5a,6,8,9-octahydro-7H-1,2,5,7-tetraazabenzo[cd]azulen-7-yl)prop-2-en-1-one]		1 to 100	> 3000	0.005 to 0.015	
C=CC(=O)N1CC2c3c(nn(-c4ccc(C5CC5)cc4)c3CCN2C(=O)c2cnc(C(F)(F)F)cc2N)C2(C1)CN(c1nnc(C)s1)C2 (stereo not drawn) [Compound 233, 1-(5′-(4-amino-6-(trifluoromethyl)nicotinoyl)-2′-(4-cyclopropylphenyl)-1-(5-methyl-1,3,4-thiadiazol-2-yl)-2′,3′,4′,5′,5a′,6′-hexahydro-1′,2′,5′,7′-tetraazaspiro[azetidine-3,9′-benzo[cd]azulen]-1′(9a′),2a′-dien-7′(8′H)-yl)prop-2-en-1-one]		100 to 250	> 3000	> 0.055	
C=CC(=O)N1CC(OCc2cnc3sccn23)c2nn(-c3ccc(C4CC4)cc3)c3c2C(C1)N(C(=O)c1ccc(C(F)(F)F)nc1)CC3 (stereo not drawn) [Compound 234, 1-(2-(4-cyclopropylphenyl)-9-(imidazo[2,1-b]thiazol-5-ylmethoxy)-5-(6-(trifluoromethyl)nicotinoyl)-2,3,4,5,5a,6,8,9-octahydro-7H-1,2,5,7-tetraazabenzo[cd]azulen-7-yl)prop-2-en-1-one]		1 to 100	> 3000	0.015 to 0.055	
C=CC(=O)N1CC(OC2(COC)CC2)c2nn(-c3ccc(C4CC4)cc3)c3c2C(C1)N(C(=O)c1ccc(C(F)(F)F)nc1)CC3 (stereo not drawn) [Compound 235, 1-(2-(4-cyclopropylphenyl)-9-(1-(methoxymethyl)cyclopropoxy)-5-(6-(trifluoromethyl)nicotinoyl)-2,3,4,5,5a,6,8,9-octahydro-7H-1,2,5,7-tetraazabenzo[cd]azulen-7-yl)prop-2-en-1-one]		100 to 250	> 3000	> 0.055	
C=CC(=O)N1CCc2nn(-c3ccc(C4CCC4)cc3)c3c2C(C1)N(C(=O)c1ccc2c(Cl)ncn2c1)CC3 (stereo not drawn) [Compound 236, 1-(5-(1-chloroimidazo[1,5-a]pyridine-6-carbonyl)-2-(4-cyclobutylphenyl)-2,3,4,5,5a,6,8,9-octahydro-7H-1,2,5,7-tetraazabenzo[cd]azulen-7-yl)prop-2-en-1-one]		1 to 100	> 3000	0.005 to 0.015	
C=CC(=O)N1CCc2nc(-c3ccc(C4CCC4)cc3)n3c2C(C1)N(C(=O)c1ccc(Br)c2[nH]c(C(F)F)nc12)CC3 (stereo not drawn) [Compound 237, 1-(5-(7-bromo-2-(difluoromethyl)-1H-benzo[d]imidazole-4-carbonyl)-2-(4-cyclobutylphenyl)-4,5,5a,6,8,9-hexahydro-1,2a,5,7-tetraazabenzo[cd]azulen-7(3H)-yl)prop-2-en-1-one]		1 to 100	> 3000	0.0015 to 0.005	
C=CC(=O)N1CCc2nn(-c3cc(F)c(C4CC4)cc3O)c3c2C(C1)N(C(=O)c1cnc(C(C)(F)F)c(F)c1N)CC3 (stereo not drawn) [Compound 253, 1-[7-[4-amino-6-(1,1-difluoroethyl)-5-fluoro-pyridine-3-carbonyl]-3-(4-cyclopropyl-5-fluoro-2-hydroxy-phenyl)-2,3,7,10-tetrazatricyclo[6.4.1.04,1 3]trideca-1,4(13)-dien-10-yl]prop-2-en-1-one]		1 to 100	> 3000	0.005 to 0.015	
C=CC(=O)N1CCc2nn(-c3cc(F)c(C4CC4)cc3O)c3c2C(C1)N(C(=O)c1cnc(OC(F)(F)F)c(F)c1N)CC3 (stereo not drawn) [Compound 254, 1-(5-(4-amino-5-fluoro-6-(trifluoromethoxy)nicotinoyl)-2-(4-cyclopropyl-5-fluoro-2-hydroxyphenyl)-2,3,4,5,5a,6,8,9-octahydro-7H-1,2,5,7-tetraazabenzo[cd]azulen-7-yl)prop-2-en-1-one]		1 to 100	> 3000		0.015 to 0.055
C=CC(=O)N1CCc2nn(-c3ccc(C4CC4)cc3O)c3c2C(C1)N(C(=O)c1ccc(C(F)(F)F)c(F)c1N)CC3 (stereo not drawn) [Compound 259, 1-(5-(2-amino-3-fluoro-4-(trifluoromethyl)benzoyl)-2-(4-cyclopropyl-2-hydroxyphenyl)-2,3,4,5,5a,6,8,9-octahydro-7H-1,2,5,7-tetraazabenzo[cd]azulen-7-yl)prop-2-en-1-one]		1 to 100	> 3000	0.015 to 0.055	
